{"source": "patent US10080752B2", "about": "“Treatment of brain and central nervous system tumors” (KADMON CORPORATION LLC, priority 2014, dated 2018)", "key": {"[1]": {"experiment": "Penetration of the blood-brain barrier: plasma and brain concentrations after a single oral dose", "format": "in vivo, Male CD-1 mice", "settings": "mice, single dose 100 mg/kg oral gavage", "procedure": "The compound of Formula I was tested to determine bioavalability in tissues of the brain and CNS.\nMale CD-1 mice (N=3/group) received a single dose of lapatinib or the compound of Formula I at 100 mg/kg via oral gavage. Animals were not food fasted prior to dosing. Dose volumes were calculated based on the animals' body weights measured before the study.\nPlasma and tissue samples were collected 1, 4, 8 and 24 hours post dose (4 time-points/group, and 3 animals/time-point). Whole blood samples were collected into a Na heparin containing tube. Within 30 minutes of collection, the samples were centrifuged at approximately 3,000×g for 10 minutes at 2 to 8° C. to obtain plasma. The plasma samples were divided into 2 aliquots by transferring into 2 cryogenic vials and stored in a freezer at −75±15° C. prior to analysis. Tissues were collected after the blood was collected. Tissues (brain, liver and kidneys) were washed with ice-cold PBS, and the weight was measured and recorded. Each tissue was transferred into a glass vial and stored in a freezer at −75±15° C. prior to sample analysis."}, "[2]": {"experiment": "Penetration of the blood-brain barrier by quantitative whole body autoradiography", "format": "in vivo, Lister Hooded partially pigmented male rats", "settings": "rats", "procedure": "The compound of Formula 1 was tested to determine bio-distribution in tissues of the brain and CNS.\nLister Hooded partially pigmented male rats (N=1 rat per time point) received a single dose of the compound of Formula 1 at 30 mg/kg body weight (^14C labeled, 3.7 MBq/kg body weight) via oral gavage. Animals were not fasted prior to dosing.\nSix rats (age 8-10 weeks old) were administered a single oral dose of [^14C]-labeled Formula 1; total dose of 30 mg/kg and a total radioactivity dose of 3.7 MBq/kg (100 μCi/kg). One rat/time point was euthanized by CO2 overdose at each of the following times after dose administration: 1, 6, 24, 72, 120 and 168 hours, followed by immediate snap freezing in hexane/solid CO2, subsequent freezing at −20° C., followed by whole-body autoradiography."}, "[3]": {"tested_on": "GL261-luc2 luciferase expressing cells", "experiment": "Efficacy alone or in combination with irradiation in an intracranial glioma model in mice", "format": "in vivo, C57BL/6 albino female mice", "settings": "70 mg/kg once daily, 5 days on/2 days off, oral gavage, FIG. 2", "procedure": "The compound of Formula 1 was tested to determine antitumor effects when tumors are growing in the brain. GL261-luc2 luciferase expressing cells were implanted intracranially (2 mm right lateral and 1 mm anterior from Bregma, 2-3 mm down from burr hole) into C57BL/6 albino female mice (N=14 per treatment group). Beginning 8 days after cell injection, mice received vehicle or the compound of Formula I at 70 mg/kg body weight (once daily, 5 days on/2 days off schedule) via oral gavage, with or without head-only irradiation (once daily for 5 days). Tumor burden in the brain was evaluated utilizing bioluminescence."}, "[4]": {"settings": "comparator in FIG. 1, 100 mg/kg oral gavage in mice; cited from earlier work"}}}
{"smiles": "COc1cc2c(Nc3ccc(Cl)c(Cl)c3F)ncnc2cc1OCC1C[C@@H]2CN(C)C[C@@H]2C1", "note": "(stereo partly drawn) [Formula 1, N-(3,4-dichloro-2-fluorophenyl)-7-({[(3aR,6aS)-2-methyloctahydrocyclopenta[c]pyrrol-5-yl]methyl}oxy)-6-(methyloxy)quinazolin-4-amine]", "values": [{"measurement": "Concentration observed in CNS tissue compared with blood", "setting": "[1]; FIG. 1", "result": "substantially higher"}, {"measurement": "Time for which the CNS tissue concentration remained higher than in blood", "setting": "[1]; duration of the assay", "result": "at least 24 hours"}, {"measurement": "Crossing of the blood brain barrier / concentrations in CNS and brain tissue", "setting": "[1]; samples 1, 4, 8 and 24 hours post dose, FIG. 1", "result": "crossed the blood brain barrier and attained high concentrations in CNS and brain tissue"}, {"measurement": "Concentrations of radioactivity in brain compared with blood", "setting": "[2]; single oral dose 30 mg/kg 14C labeled (3.7 MBq/kg), at 6 and 24 hours after dosing", "result": "comparable to that in blood"}, {"measurement": "Penetration of the blood brain barrier", "setting": "[2]; single oral dose 30 mg/kg 14C labeled, whole-body autoradiography", "result": "good penetration of the blood brain barrier"}, {"measurement": "Growth of glioma tumors in the brain (tumor burden by bioluminescence)", "setting": "[3]; from 8 days after cell injection, alone", "result": "reduced the growth of glioma tumors in the brain"}, {"measurement": "Anti-tumor effects of irradiation on tumors in the brain (tumor burden by bioluminescence)", "setting": "[3]; with head-only irradiation once daily for 5 days", "result": "increased the anti-tumor effects of irradiation on tumors in the brain"}]}
{"smiles": "CS(=O)(=O)CCNCc1ccc(-c2ccc3ncnc(Nc4ccc(OCc5cccc(F)c5)c(Cl)c4)c3c2)o1", "note": "[lapatinib]", "values": [{"measurement": "Crossing of the blood-brain barrier (comparator, as stated in legend of FIG. 1)", "setting": "[4]", "result": "does not cross the blood-brain barrier"}]}
